Test results: US20260297060A1, “COMPOUNDS FOR THE DEGRADATION OF MUTANT BRAF” (C4 THERAPEUTICS, INC., priority 2023, published 2026)
Read-outs that look alike come from different tables or passages of the source.

Assays:
BRAF V600E = target: T1, BRAF V600E (Homo sapiens, UniProt P15056+Q96SW2, V600E); experiment: BRAF V600E HiBiT Degradation Assay; type: cell-based; details: A375.10 cells, BRAF V600E
T1 construct: knock-in of the HiBiT tag to the endogenous BRAF V600E locus; host or cells: A375.10 (A375 clonal line, CRISPR HiBiT knock-in at the endogenous BRAF V600E locus)
T1 sequence (P15056 whole entry V600E): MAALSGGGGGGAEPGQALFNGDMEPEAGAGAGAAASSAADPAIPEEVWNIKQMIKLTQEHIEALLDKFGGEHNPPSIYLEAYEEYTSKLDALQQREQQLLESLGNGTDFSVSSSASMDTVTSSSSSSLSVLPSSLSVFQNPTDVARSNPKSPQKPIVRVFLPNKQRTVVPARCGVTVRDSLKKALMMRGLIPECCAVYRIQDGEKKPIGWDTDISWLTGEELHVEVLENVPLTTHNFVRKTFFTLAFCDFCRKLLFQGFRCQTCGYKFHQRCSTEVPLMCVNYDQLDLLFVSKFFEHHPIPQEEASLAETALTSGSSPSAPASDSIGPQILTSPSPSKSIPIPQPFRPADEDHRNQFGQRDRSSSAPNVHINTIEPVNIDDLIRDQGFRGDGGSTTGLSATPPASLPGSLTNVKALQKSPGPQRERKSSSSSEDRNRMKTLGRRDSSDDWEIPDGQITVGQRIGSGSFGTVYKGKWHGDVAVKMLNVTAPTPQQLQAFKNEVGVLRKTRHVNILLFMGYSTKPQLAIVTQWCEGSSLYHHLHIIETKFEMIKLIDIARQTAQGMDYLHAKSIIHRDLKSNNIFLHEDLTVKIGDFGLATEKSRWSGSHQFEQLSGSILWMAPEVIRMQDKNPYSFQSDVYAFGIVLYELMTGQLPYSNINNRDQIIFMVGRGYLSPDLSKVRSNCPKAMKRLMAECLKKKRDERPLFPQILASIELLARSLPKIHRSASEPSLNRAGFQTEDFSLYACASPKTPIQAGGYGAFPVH
T1 sequence (Q96SW2 whole entry): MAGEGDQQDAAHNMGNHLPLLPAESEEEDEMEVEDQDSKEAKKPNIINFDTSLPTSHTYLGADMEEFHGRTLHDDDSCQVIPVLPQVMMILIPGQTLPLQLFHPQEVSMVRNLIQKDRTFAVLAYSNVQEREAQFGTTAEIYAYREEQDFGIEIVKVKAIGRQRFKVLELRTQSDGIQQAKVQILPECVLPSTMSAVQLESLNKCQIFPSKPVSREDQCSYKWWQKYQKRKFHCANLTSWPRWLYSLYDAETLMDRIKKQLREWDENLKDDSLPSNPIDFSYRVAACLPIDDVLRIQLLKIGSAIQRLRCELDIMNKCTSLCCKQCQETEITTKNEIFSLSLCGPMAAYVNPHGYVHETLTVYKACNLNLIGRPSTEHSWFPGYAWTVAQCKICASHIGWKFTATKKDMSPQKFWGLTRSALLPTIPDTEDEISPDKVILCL
T1 sequence (Q16531 whole entry partner): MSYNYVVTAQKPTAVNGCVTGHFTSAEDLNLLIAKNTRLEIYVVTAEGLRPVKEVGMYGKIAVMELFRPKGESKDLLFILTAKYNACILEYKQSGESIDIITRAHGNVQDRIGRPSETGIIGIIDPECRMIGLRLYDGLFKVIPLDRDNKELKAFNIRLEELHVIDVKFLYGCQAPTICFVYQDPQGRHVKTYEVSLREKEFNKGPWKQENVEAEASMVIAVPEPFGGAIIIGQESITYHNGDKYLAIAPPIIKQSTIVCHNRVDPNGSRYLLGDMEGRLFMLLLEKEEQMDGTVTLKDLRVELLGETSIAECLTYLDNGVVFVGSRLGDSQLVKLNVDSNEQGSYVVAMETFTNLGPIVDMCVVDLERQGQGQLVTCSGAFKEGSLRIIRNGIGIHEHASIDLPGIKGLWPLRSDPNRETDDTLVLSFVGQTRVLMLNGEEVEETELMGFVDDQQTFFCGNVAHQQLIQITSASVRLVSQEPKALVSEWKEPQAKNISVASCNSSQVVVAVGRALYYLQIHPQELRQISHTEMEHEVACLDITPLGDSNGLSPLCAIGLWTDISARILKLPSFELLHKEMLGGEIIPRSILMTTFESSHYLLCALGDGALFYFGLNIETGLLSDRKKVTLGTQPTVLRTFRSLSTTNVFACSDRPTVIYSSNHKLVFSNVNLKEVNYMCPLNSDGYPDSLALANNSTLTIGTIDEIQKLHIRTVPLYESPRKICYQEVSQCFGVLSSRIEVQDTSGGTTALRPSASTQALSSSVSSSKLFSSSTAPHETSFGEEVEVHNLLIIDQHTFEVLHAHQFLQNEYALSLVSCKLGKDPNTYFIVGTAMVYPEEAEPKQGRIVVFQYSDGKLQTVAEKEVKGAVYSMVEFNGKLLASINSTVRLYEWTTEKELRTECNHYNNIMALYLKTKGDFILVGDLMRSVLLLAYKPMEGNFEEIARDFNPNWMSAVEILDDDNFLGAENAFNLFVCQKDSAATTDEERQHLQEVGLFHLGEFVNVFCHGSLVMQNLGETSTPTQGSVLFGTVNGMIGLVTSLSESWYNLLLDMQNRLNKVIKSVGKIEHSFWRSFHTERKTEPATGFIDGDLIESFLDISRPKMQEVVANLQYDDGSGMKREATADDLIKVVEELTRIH
Method in brief: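 Endogenous HiBiT knock-in on BRAF V600E in A375 cells (clone A375.10); 11-point half-log series, top 10 μM, 2, 6 or 24 h at 37° C. Lytic HiBiT luminescence, background-subtracted, normalized to DMSO; 4-parameter fit gives DC50, Emax (residual protein) and IP (inflection point).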

A375-NRAS^Q61K cells = experiment: CTGlo Cell Viability Assay, A375-NRAS^Q61K (A375.11) cells, 96 hours; type: cell-based, human; details: A375.11 (A375-NRAS^Q61K) cells; for Emax / CTGlo A375.11 96 hours Emax: lowest % viability achieved
Method in brief: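 A375 cells carrying BRAF V600E and NRAS Q61K were seeded at 250 cells/well with a 10-point half-log dose series (max 10 μM final). After 96 h at 37 °C, viability was read as ATP luminescence (CellTiter-Glo), background-subtracted and normalized to DMSO (100%). GI50 from 4-parameter fit; Emax is the lowest % viability.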

[1] = 2 hours, residual protein remaining, read-out: HiBiT-Degradation A375.10 BRAF 2 hours Emax
[2] = read-out: HiBiT-Degradation A375.10 BRAF 2 hours DC50, 2 hours
[3] = read-out: HiBiT-Degradation A375.10 BRAF 2 hours IP, 2 hours, inflection point
[4] = 2 hours, inflection point, read-out: HiBiT-Degradation A375.10 BRAF 2 hours IP
[5] = 2 hours, read-out: HiBiT-Degradation A375.10 BRAF 2 hours DC50
[6] = 2 hours, residual protein remaining
[7] = 6 hours, inflection point, read-out: HiBiT-Degradation A375.10 BRAF 6 hours IP
[8] = 6 hours, read-out: HiBiT-Degradation A375.10 BRAF 6 hours DC50
[9] = HiBiT, 24 hours, read-out: HiBiT-Degradation A375.10 BRAF 24 hours DC50
[10] = HiBiT, 24 hours, read-out: HiBiT-Degradation A375.10 BRAF 24 hours Emax
[11] = HiBiT, 24 hours, read-out: HiBiT-Degradation A375.10 BRAF 24 hours IP

SMILES	Emax (BRAF V600E; [1]) [%]	GI50 (A375-NRAS^Q61K cells; Homo sapiens, 96 h) [nM]	Emax (A375-NRAS^Q61K cells; Homo sapiens, 96 h) [%]	DC50 (BRAF V600E; [4]) [nM]	DC50 (BRAF V600E; [5]) [nM]	HiBiT-Degradation A375.10 BRAF 2 hours Emax (BRAF V600E; [6])	GI50 (A375-NRAS^Q61K cells) [nM]	CTGlo A375.11 96 hours Emax (A375-NRAS^Q61K cells)	other results
CC(C)S(=O)(=O)Nc1ccc(F)c(Oc2ccc3ncc(C4CC5(CCN(C6CC7(C6)CN(c6cc8c(cc6F)c(N6CCC(=O)NC6=O)nn8C)C7)CC5)C4)nc3c2)c1C#N (centres unmarked) [Compound 247, N-[2-cyano-3-[3-[7-[2-[3-(2,4-dioxohexahydropyrimidin-1-yl)-5-fluoro-1-methyl-indazol-6-yl]-2-azaspiro[3.3]heptan-6-yl]-7-azaspiro[3.5]nonan-2-yl]quinoxalin-6-yl]oxy-4-fluoro-phenyl]propane-2-sulfonamide]	< 50	1000 to 10000	50 to 90	–	–	–	–	–	DC50 (BRAF V600E; [2]): < 1000 nM; DC50 (BRAF V600E; [3]): < 1000 nM
CCN(C)S(=O)(=O)Nc1ccc(F)c(Oc2ccc3ncn(C4CC5(CCN(C6CCC(c7cc8c(cc7F)c(N7CCC(=O)NC7=O)nn8C)CC6)CC5)C4)c(=O)c3c2)c1C#N (single isomer, unassigned) [Compound 9, 6-[2-cyano-3-[[ethyl(methyl)sulfamoyl]amino]-6-fluoro-phenoxy]-3-[7-[4-[3-(2,4-dioxohexahydropyrimidin-1-yl)-5-fluoro-1-methyl-indazol-6-yl]cyclohexyl]-7-azaspiro[3.5]nonan-2-yl]-4-oxo-quinazoline]	–	–	–	< 1000	< 1000	*** (<=50%)	< 1000	*** (<=50%)	DC50 (BRAF V600E; [7]): < 1000 nM; DC50 (BRAF V600E; [8]): < 1000 nM; Emax (BRAF V600E; 6 hours, residual protein remaining, read-out: HiBiT-Degradation A375.10 BRAF 6 hours Emax): < 50%; DC50 (BRAF V600E; [9]): < 1000 nM; Emax (BRAF V600E; [10]): < 50%; DC50 (BRAF V600E; [11]): < 1000 nM
CCN(C)S(=O)(=O)Nc1ccc(F)c(Oc2ccc3ncc(OCC4CCN(C5CC6(C5)CN(c5cc7c(cc5F)c(N5CCC(=O)NC5=O)nn7C)C6)CC4)nc3c2)c1C#N [Compound 223, 7-[2-cyano-3-[[ethyl(methyl)sulfamoyl]amino]-6-fluoro-phenoxy]-2-[[1-[2-[3-(2,4-dioxohexahydropyrimidin-1-yl)-5-fluoro-1-methyl-indazol-6-yl]-2-azaspiro[3.3]heptan-6-yl]-4-piperidyl]methoxy]quinoxaline]	< 50	1000 to 10000	50 to 90	< 1000	< 1000	–	–	–	–
CCN(C)S(=O)(=O)Nc1ccc(F)c(Oc2ccc3ncn(C4CC5(CCN(C6CCN(c7cc8c(cc7F)c(N7CCC(=O)NC7=O)nn8C)CC6)C5)C4)c(=O)c3c2)c1C#N (single isomer, unassigned) [Compound 307, 6-[2-cyano-3-[[ethyl(methyl)sulfamoyl]amino]-6-fluoro-phenoxy]-3-[6-[1-[3-(2,4-dioxohexahydropyrimidin-1-yl)-5-fluoro-1-methyl-indazol-6-yl]-4-piperidyl]-6-azaspiro[3.4]octan-2-yl]-4-oxo-quinazoline]	50 to 90	1000 to 10000	50 to 90	< 1000	1000 to 10000	–	–	–	–
CCN(C)S(=O)(=O)Nc1ccc(F)c(Oc2ccc3ncn([C@@H]4COC5(C4)CN(C4CCC(c6cc7c(cc6F)c(N6CCC(=O)NC6=O)nn7C)CC4)C5)c(=O)c3c2)c1C#N (single isomer, unassigned) [Compound 238]	–	–	–	< 1000	< 1000	*** (<=50%)	< 1000	** (<90% and >50%)	DC50 (BRAF V600E; [9]): < 1000 nM; Emax (BRAF V600E; [10]): < 50%; DC50 (BRAF V600E; [11]): < 1000 nM
CCN(C)S(=O)(=O)Nc1ccc(F)c(Oc2ccc3ncn([C@@H]4COC5(CCN(C6CCC(c7ccc(NC8CCC(=O)NC8=O)cc7F)CC6)CC5)C4)c(=O)c3c2F)c1C#N (single isomer, unassigned) [Compound 53]	–	–	–	< 1000	< 1000	*** (<=50%)	1000 to 10000	** (<90% and >50%)	–
CCN(C)S(=O)(=O)Nc1ccc(F)c(Oc2ccc3ncc(OCC4(O)CCN(C5CCC(c6cc7c(cc6F)c(N6CCC(=O)NC6=O)nn7C)CC5)CC4)nc3c2)c1C#N (single isomer, unassigned) [Compound 195, 7-[2-cyano-3-[[ethyl(methyl)sulfamoyl]amino]-6-fluoro-phenoxy]-2-[[1-[4-[3-(2,4-dioxohexahydropyrimidin-1-yl)-5-fluoro-1-methyl-indazol-6-yl]cyclohexyl]-4-hydroxy-4-piperidyl]methoxy]quinoxaline]	50 to 90	–	< 50	< 1000	> 10000	–	> 10000	–	–
Cn1nc(N2CCC(=O)NC2=O)c2cc(F)c(C3CCC(N4CCC5(CC4)CC(c4cnc6ccc(Oc7c(F)ccc(NS(=O)(=O)C8CCCC8)c7C#N)cc6n4)C5)CC3)cc21 (single isomer, unassigned) [Compound 271, N-[2-cyano-3-[3-[7-[4-[3-(2,4-dioxohexahydropyrimidin-1-yl)-5-fluoro-1-methyl-indazol-6-yl]cyclohexyl]-7-azaspiro[3.5]nonan-2-yl]quinoxalin-6-yl]oxy-4-fluoro-phenyl]cyclopentanesulfonamide]	–	–	–	–	–	*** (<=50%)	< 1000	*** (<=50%)	DC50 (BRAF V600E; [2]): < 1000 nM; DC50 (BRAF V600E; [3]): < 1000 nM
N#Cc1c(NS(=O)(=O)C2CCCC2)ccc(F)c1Oc1ccc2ncn([C@H]3COC4(CCN(C5CCC(c6ccc(NC7CCC(=O)NC7=O)cc6F)CC5)CC4)C3)c(=O)c2c1 (single isomer, unassigned) [Compound 136]	< 50	< 1000	< 50	< 1000	< 1000	–	–	–	–
CN(CCO)S(=O)(=O)Nc1ccc(F)c(Oc2ccc3ncc(C4CC5(CCN(C6CC7(C6)CN(c6cc8c(cc6F)c(N6CCC(=O)NC6=O)nn8C)C7)CC5)C4)nc3c2)c1C#N (centres unmarked) [Compound 187, 7-[2-cyano-6-fluoro-3-[[2-hydroxyethyl(methyl)sulfamoyl]amino]phenoxy]-2-[7-[2-[3-(2,4-dioxohexahydropyrimidin-1-yl)-5-fluoro-1-methyl-indazol-6-yl]-2-azaspiro[3.3]heptan-6-yl]-7-azaspiro[3.5]nonan-2-yl]quinoxaline]	50 to 90	> 10000	50 to 90	–	–	–	–	–	DC50 (BRAF V600E; [2]): 1000 to 10000 nM; DC50 (BRAF V600E; [3]): < 1000 nM
CCN(C)S(=O)(=O)Nc1ccc(F)c(Oc2ccc3ncn(C4CC5(CCN(C6CC7(C6)CN(c6ccc(NC8CCC(=O)NC8=O)cc6F)C7)CC5)C4)c(=O)c3c2)c1F (centres unmarked) [Compound 188, 3-[7-[2-[4-[(2,6-dioxo-3-piperidyl)amino]-2-fluoro-phenyl]-2-azaspiro[3.3]heptan-6-yl]-7-azaspiro[3.5]nonan-2-yl]-6-[3-[[ethyl(methyl)sulfamoyl]amino]-2,6-difluoro-phenoxy]-4-oxo-quinazoline]	50 to 90	> 10000	50 to 90	< 1000	< 1000	–	–	–	–
CO[C@H]1CCN(S(=O)(=O)Nc2ccc(F)c(Oc3ccc4ncn(C5CC6(CCN(C7CCC(c8cc9c(cc8F)c(N8CCC(=O)NC8=O)nn9C)CC7)CC6)C5)c(=O)c4c3)c2C#N)C1 (single isomer, unassigned) [Compound 104]	–	–	–	< 1000	< 1000	*** (<=50%)	1000 to 10000	** (<90% and >50%)	DC50 (BRAF V600E; [7]): < 1000 nM; DC50 (BRAF V600E; [8]): < 1000 nM; HiBiT-Degradation A375.10 BRAF 6 hours Emax (BRAF V600E; 6 hours, residual protein remaining): *** (<=50%); HiBiT-Degradation A375.10 BRAF 24 hours Emax (BRAF V600E; HiBiT, 24 hours): *** (<=50%); DC50 (BRAF V600E; [9]): < 1000 nM; DC50 (BRAF V600E; [11]): < 1000 nM
CCN(C)S(=O)(=O)Nc1ccc(F)c(Oc2ccc3ncn(C4CC5(CCN(C6CC7(CCN(c8cc9c(cc8F)c(N8CCC(=O)NC8=O)nn9C)CC7)C6)C5)C4)c(=O)c3c2)c1C#N (centres unmarked) [Compound 266, 6-[2-cyano-3-[[ethyl(methyl)sulfamoyl]amino]-6-fluoro-phenoxy]-3-[6-[7-[3-(2,4-dioxohexahydropyrimidin-1-yl)-5-fluoro-1-methyl-indazol-6-yl]-7-azaspiro[3.5]nonan-2-yl]-6-azaspiro[3.4]octan-2-yl]-4-oxo-quinazoline]	50 to 90	> 10000	50 to 90	< 1000	< 1000	–	–	–	–
